Data reported in ChEMBL document CHEMBL3885881, “DrugMatrix”.

Organism: Rattus norvegicus
Assay: DrugMatrix - Regimen: Daily Repeat
Assay type: toxicity, organism-based, Sprague-Dawley
Set-up: regimen Daily Repeat, gender Male, age 6-8 weeks
Conditions: in vivo, po, route oral GAVAGE, vehicle .5 % CMC; for BASOPHIL / EOSINOPHIL / ERYTHROCYTE COUNT / HEMATOCRIT / HEMOGLOBIN / LEUKOCYTE COUNT / LYMPHOCYTE / MEAN CORPUSCULAR HEMOGLOBIN / MEAN CORPUSCULAR HEMOGLOBIN CONCENTRATION / MEAN CORPUSCULAR VOLUME / MONOCYTE / NEUTROPHIL / PLATELET COUNT: tissue Blood; for ALANINE AMINOTRANSFERASE / ALBUMIN / ALKALINE PHOSPHATASE / ASPARTATE AMINOTRANSFERASE / BLOOD UREA NITROGEN / CHLORIDE / CHOLESTEROL / CREATINE PHOSPHOKINASE / CREATININE / GLUCOSE / PHOSPHORUS / POTASSIUM / SODIUM / TOTAL BILIRUBIN / TOTAL PROTEIN: tissue Plasma
[1] = 0 mg/kg, 72 h, dose level Control, time 3 day
[2] = 0 mg/kg, 120 h, dose level Control, time 5 day
[3] = 75 mg/kg, 72 h, dose level High, time 3 day
[4] = 75 mg/kg, 120 h, dose level High, time 5 day
[5] = […], 72 h, dose 7.5 mg/Kg, dose level Low, time 3 day
[6] = […], 120 h, dose 7.5 mg/Kg, dose level Low, time 5 day

In the case of COc1ccc(C2C(=O)c3ccccc3C2=O)cc1 [ANISINDIONE], the BASOPHIL [1] is reported as 0%, the EOSINOPHIL [1] is reported as 0% and the “ERYTHROCYTE COUNT” value [1] is reported as 6.19 x10E6/uL. For the same compound, the HEMATOCRIT [1] was 36.94%, the HEMOGLOBIN [1] was 14.58 G/DL and the “LEUKOCYTE COUNT” value [1] was 11.54 x10E3/uL. The LYMPHOCYTE [1] was 84.8%, the “MEAN CORPUSCULAR HEMOGLOBIN” value [1] was 23.58 pg and the “MEAN CORPUSCULAR HEMOGLOBIN CONCENTRATION” value [1] was 39.44 G/DL. For the same compound, the “MEAN CORPUSCULAR VOLUME” value [1] was 59.76 fL, the MONOCYTE [1] was 1.4% and the NEUTROPHIL [1] was 13.8%. For the same compound, the “PLATELET COUNT” value [1] was 1068.8 x10E3/uL, the “ALANINE AMINOTRANSFERASE” value [1] was 38.17 u/L and the ALBUMIN [1] was 3.88 G/DL. The “ALKALINE PHOSPHATASE” value [1] was 391.33 u/L, the “ASPARTATE AMINOTRANSFERASE” value [1] was 69.83 u/L and the “BLOOD UREA NITROGEN” value [1] was 15 mg/dL. The CHLORIDE [1] was 104.17 MEQ/L, the CHOLESTEROL [1] was 72.17 mg/dL and the “CREATINE PHOSPHOKINASE” value [1] was 174.33 u/L. For the same compound, the CREATININE [1] was 0.58 mg/dL, the GLUCOSE [1] was 192.67 mg/dL and the PHOSPHORUS [1] was 10.52 mg/dL. For the same compound, the POTASSIUM [1] was 6.8 MEQ/L, the SODIUM [1] was 149.67 MEQ/L and the “TOTAL BILIRUBIN” value [1] was 0.78 mg/dL. The “TOTAL PROTEIN” value [1] was 6.28 G/DL, the BASOPHIL [2] was 0% and the EOSINOPHIL [2] was 0.17%. For the same compound, the “ERYTHROCYTE COUNT” value [2] was 6.72 x10E6/uL, the HEMATOCRIT [2] was 40.02% and the HEMOGLOBIN [2] was 15.83 G/DL. For the same compound, the “LEUKOCYTE COUNT” value [2] was 9.5 x10E3/uL, the LYMPHOCYTE [2] was 87.17% and the “MEAN CORPUSCULAR HEMOGLOBIN” value [2] was 23.57 pg. The “MEAN CORPUSCULAR HEMOGLOBIN CONCENTRATION” value [2] was 39.62 G/DL, the “MEAN CORPUSCULAR VOLUME” value [2] was 59.55 fL and the MONOCYTE [2] was 1.67%. The NEUTROPHIL [2] was 11%, the “PLATELET COUNT” value [2] was 1053.67 x10E3/uL and the “ALANINE AMINOTRANSFERASE” value [2] was 26.33 u/L. For the same compound, the ALBUMIN [2] was 4.02 G/DL, the “ALKALINE PHOSPHATASE” value [2] was 316.67 u/L and the “ASPARTATE AMINOTRANSFERASE” value [2] was 61.33 u/L. For the same compound, the “BLOOD UREA NITROGEN” value [2] was 18.67 mg/dL, the CHLORIDE [2] was 108 MEQ/L and the CHOLESTEROL [2] was 65.17 mg/dL. The “CREATINE PHOSPHOKINASE” value [2] was 161.17 u/L, the CREATININE [2] was 0.75 mg/dL and the GLUCOSE [2] was 177.33 mg/dL. It also gave a PHOSPHORUS [2] of 9.72 mg/dL, a POTASSIUM [2] of 6.18 MEQ/L and an SODIUM [2] of 150.5 MEQ/L. For the same compound, the “TOTAL BILIRUBIN” value [2] was 0.68 mg/dL, the “TOTAL PROTEIN” value [2] was 6.55 G/DL and the BASOPHIL [3] was 0%. The EOSINOPHIL [3] was 0.33%, the “ERYTHROCYTE COUNT” value [3] was 6.08 x10E6/uL and the HEMATOCRIT [3] was 36.9%. The HEMOGLOBIN [3] was 14.87 G/DL, the “LEUKOCYTE COUNT” value [3] was 12.97 x10E3/uL and the LYMPHOCYTE [3] was 73.67%. The “MEAN CORPUSCULAR HEMOGLOBIN” value [3] was 24.43 pg, the “MEAN CORPUSCULAR HEMOGLOBIN CONCENTRATION” value [3] was 40.3 G/DL and the “MEAN CORPUSCULAR VOLUME” value [3] was 60.63 fL. For the same compound, the MONOCYTE [3] was 4.67%, the NEUTROPHIL [3] was 21.33% and the “PLATELET COUNT” value [3] was 1074.33 x10E3/uL. For the same compound, the “ALANINE AMINOTRANSFERASE” value [3] was 32.33 u/L, the ALBUMIN [3] was 3.7 G/DL and the “ALKALINE PHOSPHATASE” value [3] was 312.67 u/L. The “ASPARTATE AMINOTRANSFERASE” value [3] was 70.67 u/L, the “BLOOD UREA NITROGEN” value [3] was 16.67 mg/dL and the CHLORIDE [3] was 102.67 MEQ/L. For the same compound, the CHOLESTEROL [3] was 62.67 mg/dL, the “CREATINE PHOSPHOKINASE” value [3] was 163 u/L and the CREATININE [3] was 0.7 mg/dL. For the same compound, the GLUCOSE [3] was 161.33 mg/dL, the PHOSPHORUS [3] was 10.17 mg/dL and the POTASSIUM [3] was 6.4 MEQ/L. The SODIUM [3] was 147 MEQ/L, the “TOTAL BILIRUBIN” value [3] was 0.57 mg/dL and the “TOTAL PROTEIN” value [3] was 5.87 G/DL. For the same compound, the BASOPHIL [4] was 0%, the EOSINOPHIL [4] was 0.5% and the “ERYTHROCYTE COUNT” value [4] was 6.19 x10E6/uL. The HEMATOCRIT [4] was 36.1%, the HEMOGLOBIN [4] was 14.4 G/DL and the “LEUKOCYTE COUNT” value [4] was 13.5 x10E3/uL. For the same compound, the LYMPHOCYTE [4] was 85.5%, the “MEAN CORPUSCULAR HEMOGLOBIN” value [4] was 23.25 pg and the “MEAN CORPUSCULAR HEMOGLOBIN CONCENTRATION” value [4] was 39.9 G/DL. The “MEAN CORPUSCULAR VOLUME” value [4] was 58.3 fL, the MONOCYTE [4] was 1.5% and the NEUTROPHIL [4] was 12.5%. The “PLATELET COUNT” value [4] was 1096 x10E3/uL, the “ALANINE AMINOTRANSFERASE” value [4] was 36.5 u/L and the ALBUMIN [4] was 3.75 G/DL. The “ALKALINE PHOSPHATASE” value [4] was 318 u/L, the “ASPARTATE AMINOTRANSFERASE” value [4] was 61.5 u/L and the “BLOOD UREA NITROGEN” value [4] was 14 mg/dL. The CHLORIDE [4] was 104 MEQ/L, the CHOLESTEROL [4] was 40.5 mg/dL and the “CREATINE PHOSPHOKINASE” value [4] was 138.5 u/L. The CREATININE [4] was 0.55 mg/dL, the GLUCOSE [4] was 161 mg/dL and the PHOSPHORUS [4] was 10.3 mg/dL. For the same compound, the POTASSIUM [4] was 6.15 MEQ/L, the SODIUM [4] was 150 MEQ/L and the “TOTAL BILIRUBIN” value [4] was 0.55 mg/dL. The “TOTAL PROTEIN” value [4] was 6.2 G/DL, the BASOPHIL [5] was 0% and the EOSINOPHIL [5] was 1%. The “ERYTHROCYTE COUNT” value [5] was 6.37 x10E6/uL, the HEMATOCRIT [5] was 38.8% and the HEMOGLOBIN [5] was 15.33 G/DL. For the same compound, the “LEUKOCYTE COUNT” value [5] was 10.33 x10E3/uL, the LYMPHOCYTE [5] was 83.67% and the “MEAN CORPUSCULAR HEMOGLOBIN” value [5] was 24.07 pg. For the same compound, the “MEAN CORPUSCULAR HEMOGLOBIN CONCENTRATION” value [5] was 39.53 G/DL, the “MEAN CORPUSCULAR VOLUME” value [5] was 60.9 fL and the MONOCYTE [5] was 3.33%. For the same compound, the NEUTROPHIL [5] was 12%, the “PLATELET COUNT” value [5] was 1127.67 x10E3/uL and the “ALANINE AMINOTRANSFERASE” value [5] was 31.33 u/L. The ALBUMIN [5] was 3.87 G/DL, the “ALKALINE PHOSPHATASE” value [5] was 294.67 u/L and the “ASPARTATE AMINOTRANSFERASE” value [5] was 62.33 u/L. The “BLOOD UREA NITROGEN” value [5] was 14.33 mg/dL, the CHLORIDE [5] was 103.67 MEQ/L and the CHOLESTEROL [5] was 76 mg/dL. For the same compound, the “CREATINE PHOSPHOKINASE” value [5] was 156 u/L, the CREATININE [5] was 0.7 mg/dL and the GLUCOSE [5] was 185.67 mg/dL. The PHOSPHORUS [5] was 12.2 mg/dL, the POTASSIUM [5] was 7.33 MEQ/L and the SODIUM [5] was 149.67 MEQ/L. For the same compound, the “TOTAL BILIRUBIN” value [5] was 0.53 mg/dL, the “TOTAL PROTEIN” value [5] was 6.23 G/DL and the BASOPHIL [6] was 0%. For the same compound, the EOSINOPHIL [6] was 0%, the “ERYTHROCYTE COUNT” value [6] was 6.33 x10E6/uL and the HEMATOCRIT [6] was 38.27%. The HEMOGLOBIN [6] was 15.1 G/DL, the “LEUKOCYTE COUNT” value [6] was 12.9 x10E3/uL and the LYMPHOCYTE [6] was 81.33%. For the same compound, the “MEAN CORPUSCULAR HEMOGLOBIN” value [6] was 23.87 pg, the “MEAN CORPUSCULAR HEMOGLOBIN CONCENTRATION” value [6] was 39.47 G/DL and the “MEAN CORPUSCULAR VOLUME” value [6] was 60.5 fL. For the same compound, the MONOCYTE [6] was 2.33%, the NEUTROPHIL [6] was 16.33% and the “PLATELET COUNT” value [6] was 999.67 x10E3/uL. The “ALANINE AMINOTRANSFERASE” value [6] was 37 u/L, the ALBUMIN [6] was 3.87 G/DL and the “ALKALINE PHOSPHATASE” value [6] was 349.67 u/L. For the same compound, the “ASPARTATE AMINOTRANSFERASE” value [6] was 67.67 u/L, the “BLOOD UREA NITROGEN” value [6] was 14 mg/dL and the CHLORIDE [6] was 104 MEQ/L. For the same compound, the CHOLESTEROL [6] was 70.33 mg/dL, the “CREATINE PHOSPHOKINASE” value [6] was 150.33 u/L and the CREATININE [6] was 0.7 mg/dL. The GLUCOSE [6] was 172 mg/dL, the PHOSPHORUS [6] was 10.37 mg/dL and the POTASSIUM [6] was 6.23 MEQ/L. The SODIUM [6] was 149.67 MEQ/L, the “TOTAL BILIRUBIN” value [6] was 0.57 mg/dL and the “TOTAL PROTEIN” value [6] was 6.2 G/DL.
